Test results: patent publication US4708871A, “Antigenically active amino acid sequences” (priority 1983, dated 1987)
Entries after “also recorded” stand apart in the source; their conditions may differ. No end group written: not given here.

Experiments:
Type in all cases: binding, rabbit
[1] = system: anti-virus-subunit, type O1 antiserum
[2] = system: anti-intact virus particle, type O1 antisera
[3] = system: anti-VP1, type O1 antiserum
[4] = system: anti-intact virus particle, type C1 antiserum

| Substance | Reactive antibody in anti-subunit sera (ELISA) [1] | Change of activity, absorbed compared to non-absorbed serum [2] | Reactive antibody in anti-intact virus serum after absorption with purified virus (ELISA) [2] | Reactive antibody in whole anti-intact virus sera (ELISA) [2] | Activity with another anti-VP1 serum (ELISA) [3] | Reactive antibody in anti-VP1 sera (ELISA) [3] | Reaction with antiserum to type C1 (ELISA) [4] |
| --- | --- | --- | --- | --- | --- | --- | --- |
| DLQVLA [compound 147] | not observed | loss of activity | absent | present; also recorded: reacted | showed nothing | only weakly present | did not react at all |
| GDLQVL [GDLQVL] | not observed | loss of activity | absent | present; also recorded: reacted | showed nothing | only weakly present | did not react at all |
